Test results published in ChEMBL document CHEMBL6083208, “Integrating amino acids into Bcr-Abl inhibitors: design, synthesis, biological evaluation, and in silico studies” (RSC Med Chem, 2024).
Active and inactive are the calls of the source. The calls are words filed in the database; no cut-off is given here.

Tests used:
K562 [1] = experiment: Induction of cell cycle arrest in human K562 cells assessed as increase in accumulation of cells at G0/G1 phase at 1 to 15 uM measured after 48 hrs by PI staining based flow cytometry analysis; type: functional; settings: dose 1-15 µM
K562 [2] = experiment: Induction of apoptosis in human K562 cells assessed as viable cells at 1 uM measured after 48 hrs by annexin-V/FITC and propidium iodide double staining based flow cytometry analysis (reference value: 85.73%); type: functional; settings: read-out: Activity
BaF3 [3] = experiment: Antiproliferative activity against mouse BaF3 cells harbouring Bcr-Abl T315I assessed of cell viability at 30 uM incubated for 72 hrs by Celltiter-glo luminescent cell viability assay relative to control; type: functional
HEK293 = experiment: Antiproliferative activity against HEK293 cells after 48 hrs by MTT assay; type: toxicity, cell-based; set-up: concentration or dose not given beside the values; settings: human, hek293, 48 h
Bcr/Abl fusion protein = Bcr/Abl fusion protein (Homo sapiens, UniProt P00519); experiment: Inhibition of wild type Bcr-Abl (unknown origin) using Abltide as substrate incubated for 1 hr by luminescence based ADP-glo assay; type: protein assay
Sequence of Bcr/Abl fusion protein (P00519 whole entry, the tested form may be a part): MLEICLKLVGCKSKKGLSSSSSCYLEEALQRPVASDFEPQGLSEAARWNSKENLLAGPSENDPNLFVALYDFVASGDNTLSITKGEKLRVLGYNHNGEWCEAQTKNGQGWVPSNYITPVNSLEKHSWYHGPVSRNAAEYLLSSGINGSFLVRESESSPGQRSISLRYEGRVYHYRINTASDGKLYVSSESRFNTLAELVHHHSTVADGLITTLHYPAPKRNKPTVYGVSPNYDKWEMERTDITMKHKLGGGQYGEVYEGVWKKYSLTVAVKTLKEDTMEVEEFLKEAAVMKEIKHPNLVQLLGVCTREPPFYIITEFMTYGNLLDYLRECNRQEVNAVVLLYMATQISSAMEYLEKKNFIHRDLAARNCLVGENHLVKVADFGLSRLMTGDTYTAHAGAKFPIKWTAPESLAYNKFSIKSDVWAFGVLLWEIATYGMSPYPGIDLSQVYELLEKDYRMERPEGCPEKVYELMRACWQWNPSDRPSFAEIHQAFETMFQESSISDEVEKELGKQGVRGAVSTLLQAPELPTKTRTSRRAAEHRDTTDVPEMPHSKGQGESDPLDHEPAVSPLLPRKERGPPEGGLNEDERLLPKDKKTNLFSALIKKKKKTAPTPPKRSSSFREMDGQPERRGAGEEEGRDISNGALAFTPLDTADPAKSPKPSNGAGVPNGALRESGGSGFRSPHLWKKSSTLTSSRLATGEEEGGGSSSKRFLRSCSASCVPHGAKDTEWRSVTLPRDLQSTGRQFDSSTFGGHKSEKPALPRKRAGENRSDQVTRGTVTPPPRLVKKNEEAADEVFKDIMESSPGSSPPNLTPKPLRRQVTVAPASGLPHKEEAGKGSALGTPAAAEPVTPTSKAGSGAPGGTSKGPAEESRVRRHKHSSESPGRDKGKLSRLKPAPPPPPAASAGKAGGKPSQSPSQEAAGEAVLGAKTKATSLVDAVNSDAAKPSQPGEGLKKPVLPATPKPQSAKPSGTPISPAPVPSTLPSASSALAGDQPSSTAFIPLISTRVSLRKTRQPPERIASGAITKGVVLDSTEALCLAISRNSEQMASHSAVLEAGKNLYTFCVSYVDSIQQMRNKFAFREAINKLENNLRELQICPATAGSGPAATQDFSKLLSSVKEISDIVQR
Sequence of Bcr/Abl fusion protein (P11274 whole entry, further chain, the tested form may be a part): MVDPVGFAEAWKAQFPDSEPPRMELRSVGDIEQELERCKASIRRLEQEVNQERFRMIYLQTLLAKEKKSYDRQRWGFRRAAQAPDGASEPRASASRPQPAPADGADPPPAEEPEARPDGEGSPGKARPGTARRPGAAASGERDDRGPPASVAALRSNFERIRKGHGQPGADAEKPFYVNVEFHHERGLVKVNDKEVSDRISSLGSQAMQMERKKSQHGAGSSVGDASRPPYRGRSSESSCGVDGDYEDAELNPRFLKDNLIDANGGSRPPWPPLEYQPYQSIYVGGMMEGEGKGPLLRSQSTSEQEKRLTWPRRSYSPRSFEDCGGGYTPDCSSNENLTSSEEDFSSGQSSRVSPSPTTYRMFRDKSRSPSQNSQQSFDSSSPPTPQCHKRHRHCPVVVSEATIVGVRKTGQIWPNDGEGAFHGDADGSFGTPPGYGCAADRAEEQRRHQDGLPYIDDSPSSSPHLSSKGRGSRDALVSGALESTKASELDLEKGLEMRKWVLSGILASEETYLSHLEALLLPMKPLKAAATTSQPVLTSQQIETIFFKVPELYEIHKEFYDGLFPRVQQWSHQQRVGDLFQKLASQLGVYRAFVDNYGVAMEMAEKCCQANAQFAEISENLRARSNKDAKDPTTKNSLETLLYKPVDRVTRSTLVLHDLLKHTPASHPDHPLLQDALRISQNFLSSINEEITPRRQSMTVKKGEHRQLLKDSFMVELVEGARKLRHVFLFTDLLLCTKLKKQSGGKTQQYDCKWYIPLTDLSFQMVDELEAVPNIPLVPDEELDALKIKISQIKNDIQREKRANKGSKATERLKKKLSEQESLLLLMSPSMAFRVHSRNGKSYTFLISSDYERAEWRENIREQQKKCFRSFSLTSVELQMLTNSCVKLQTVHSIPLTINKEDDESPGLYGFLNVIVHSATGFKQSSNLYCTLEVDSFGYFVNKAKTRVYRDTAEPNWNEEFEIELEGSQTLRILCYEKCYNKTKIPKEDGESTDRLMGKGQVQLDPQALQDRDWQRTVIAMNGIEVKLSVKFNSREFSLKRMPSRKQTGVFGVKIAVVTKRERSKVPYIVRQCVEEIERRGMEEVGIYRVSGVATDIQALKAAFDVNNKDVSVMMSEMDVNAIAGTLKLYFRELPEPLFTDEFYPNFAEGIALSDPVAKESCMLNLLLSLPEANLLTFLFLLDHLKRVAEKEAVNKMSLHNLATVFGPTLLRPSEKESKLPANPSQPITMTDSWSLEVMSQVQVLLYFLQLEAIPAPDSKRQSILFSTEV

[4] = molecular target: T1, Bcr/Abl fusion protein (Homo sapiens) (UniProt P00519+P11274); experiment: Inhibition of wild type BCR-ABL in human K562 cells assessed as inhibition of STAT5 phosphorylation level at 20 uM measured after 48 hrs by Western blot analysis; type: cell-based
T1 sequence (P00519 whole entry, looked up, the tested form may be a part): as the sequence (P00519 whole entry, the tested form may be a part) above
T1 sequence (P11274 whole entry, looked up, the tested form may be a part): as the sequence (P11274 whole entry, further chain, the tested form may be a part) above

[5] = molecular target: T1, Bcr/Abl fusion protein (Homo sapiens); experiment: Inhibition of wild type BCR-ABL in human K562 cells assessed as inhibition of Bcr-Abl phosphorylation level at high concentration measured after 48 hrs by Western blot analysis; type: cell-based
K562 [6] = experiment: Induction of apoptosis in human K562 cells assessed as necrotic cells at 10 uM measured after 48 hrs by annexin-V/FITC and propidium iodide double staining based flow cytometry analysis (reference value: 0.27%); type: functional
K562 [7] = experiment: Induction of apoptosis in human K562 cells assessed as early apoptotic cells at 1 uM measured after 48 hrs by annexin-V/FITC and propidium iodide double staining based flow cytometry analysis (reference value: 1.96%); type: functional
[8] = molecular target: T1, Bcr/Abl fusion protein (Homo sapiens); experiment: Inhibition of wild type BCR-ABL in human K562 cells assessed as inhibition of Bcr-Abl phosphorylation level at 20 uM measured after 48 hrs by Western blot analysis; type: cell-based
K562 [9] = experiment: Induction of apoptosis in human K562 cells assessed as late apoptotic cells at 15 uM measured after 48 hrs by annexin-V/FITC and propidium iodide double staining based flow cytometry analysis (reference value: 12.03%); type: functional
[10] = Inhibition of Bcr-Abl T315Ialpha mutant (unknown origin) using Abltide as substrate incubated for 1 hr by luminescence based ADP-glo assay; set-up: species or system Homo sapiens
THP-1 = experiment: Antiproliferative activity against human THP-1 cells after 48 hrs by MTT assay; type: functional; set-up: concentration or dose not given beside the values
K562 [11] = experiment: Induction of cell cycle arrest in human K562 cells assessed as reduction in accumulation of cells at S phase at 1 to 15 uM measured after 48 hrs by PI staining based flow cytometry analysis; type: functional; settings: dose 1-15 µM
K562 [12] = experiment: cells; settings: Homo sapiens, K562, 48 h
K562 [13] = experiment: Induction of apoptosis in human K562 cells assessed as necrotic cells at 1 uM measured after 48 hrs by annexin-V/FITC and propidium iodide double staining based flow cytometry analysis (reference value: 0.27%); type: functional
BaF3 [14] = experiment: Antiproliferative activity against mouse BaF3 cells harbouring Bcr-Abl T315I assessed of cell viability at 2 uM incubated for 72 hrs by Celltiter-glo luminescent cell viability assay relative to control; type: functional
K562 [15] = experiment: Induction of apoptosis in human K562 cells assessed as late apoptotic cells at 1 uM measured after 48 hrs by annexin-V/FITC and propidium iodide double staining based flow cytometry analysis (reference value: 12.03%); type: functional
BaF3 [16] = experiment: Antiproliferative activity against mouse BaF3 cells harbouring Bcr-Abl T315I assessed of cell viability at 10 uM incubated for 72 hrs by Celltiter-glo luminescent cell viability assay relative to control; type: functional
K562 [17] = experiment: Induction of apoptosis in human K562 cells assessed as late apoptotic cells at 10 uM measured after 48 hrs by annexin-V/FITC and propidium iodide double staining based flow cytometry analysis (reference value: 12.03%); type: functional
K562 [18] = experiment: Induction of apoptosis in human K562 cells assessed as viable cells at 15 uM measured after 48 hrs by annexin-V/FITC and propidium iodide double staining based flow cytometry analysis (reference value: 85.73%); type: functional; settings: read-out: Activity
[19] = molecular target: T1, Bcr/Abl fusion protein (Homo sapiens); experiment: Inhibition of wild type BCR-ABL in human K562 cells assessed as inhibition of STAT5 phosphorylation level at high concentration measured after 48 hrs by Western blot analysis; type: cell-based
K562 [20] = experiment: Induction of apoptosis in human K562 cells assessed as viable cells at 10 uM measured after 48 hrs by annexin-V/FITC and propidium iodide double staining based flow cytometry analysis (reference value: 85.73%); type: functional; settings: read-out: Activity
K562 [21] = experiment: Induction of apoptosis in human K562 cells assessed as early apoptotic cells at 10 uM measured after 48 hrs by annexin-V/FITC and propidium iodide double staining based flow cytometry analysis (reference value: 1.96%); type: functional
K562 [22] = experiment: Induction of apoptosis in human K562 cells assessed as necrotic cells at 15 uM measured after 48 hrs by annexin-V/FITC and propidium iodide double staining based flow cytometry analysis (reference value: 0.27%); type: functional
K562 [23] = experiment: Induction of apoptosis in human K562 cells assessed as early apoptotic cells at 15 uM measured after 48 hrs by annexin-V/FITC and propidium iodide double staining based flow cytometry analysis (reference value: 1.96%); type: functional
K562 [24] = experiment: cells; settings: Homo sapiens, K562, 48 h, read-out: Activity
K562 [25] = experiment: cells; settings: Homo sapiens, K562, 48 h, read-out: Activity; remark: listed apart in the source
K562 [26] = experiment: cells; settings: Homo sapiens, K562, 48 h, read-out: Activity; remark: listed apart in the source

**Q.** What does the source list for `CC(C)(C)C(=O)Nc1cc(-c2ccc(C(=O)N[C@@H](CO)C(=O)Nc3ccc(Cl)c(C(F)(F)F)c3)cc2)ccn1`?
**A.** Activity (K562 [1]): inactive; viability at 1 µM (K562 [2]): 76.5%; inhibition at 30 µM (BaF3 [3]): 99.2%; Activity (HEK293): 87%; IC50 (Bcr/Abl fusion protein): 5.01 nM; inhibition [4]: Active; inhibition [5]: Active; Activity (K562 [6]): 1.39%; Activity (K562 [7]): 5.12%; inhibition [8]: Active; Activity (K562 [9]): 24.21%; IC50 [10]: 122 nM; Activity (THP-1): 54%; Activity (K562 [11]): inactive; IC50 (K562 [12]): 2.04 nM; Activity (K562 [13]): 1.75%; inhibition at 2 µM (BaF3 [14]): 0.2%; Activity (K562 [15]): 16.63%; inhibition at 10 µM (BaF3 [16]): 99.9%; Activity (K562 [17]): 21.34%; viability at 15 µM (K562 [18]): 69.6%; inhibition [19]: Active; viability at 10 µM (K562 [20]): 74.4%; Activity (K562 [21]): 2.83%; Activity (K562 [22]): 3.98%; Activity (K562 [23]): 2.21%

**Q.** With `Cc1ccc(NC(=O)c2ccc(CN3CCN(C)CC3)cc2)cc1Nc1nccc(-c2cccnc2)n1` [IMATINIB] as the molecule, how does the Activity (HEK293) read?
**A.** 87%

**Q.** What about the viability at 5 µM (K562 [24]) of the same molecule?
**A.** 74.3%

**Q.** And the Activity (THP-1)?
**A.** 100%

**Q.** And the IC50 (K562 [12])?
**A.** 2.03 nM

**Q.** And the viability at 1 µM (K562 [25])?
**A.** 72.9%

**Q.** What about the viability at 10 µM (K562 [26]) of the same molecule?
**A.** 67.4%
